# Patent US6737383B1, “Herbicidal oxadiazolidines” (priority 1999, dated 2004)
# How the values were obtained:
# corn = assay: Test B pre/postemergence corn; type: in vivo, Zea mays
# In short: (§1)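 Response is a visual 0-to-10 score relative to untreated plants, where 0 means no effect and 10 means complete control, taken twelve to sixteen days after application. Treatments went onto soil at planting and onto foliage of 1- to 4-leaf plants, using a surfactant-containing non-phytotoxic solvent.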
# smallflower flatsedge = assay: Test B flood test smallflower flatsedge; type: in vivo, Cyperus difformis
# In short: (§2)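 Flood test on plants grown to the 2-leaf stage; treated plants kept in greenhouse twelve to sixteen days, then visually rated against controls on a 0 (no effect) to 10 (complete control) scale.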
# rape = assay: Test B pre/postemergence rape; type: in vivo, Brassica napus
# In short: as §1
# soybean = assay: Test B pre/postemergence soybean; type: in vivo, Glycine max
# In short: as §1
# morningglory = assay: Test B pre/postemergence morningglory; type: in vivo, Ipomoea hederacea
# In short: as §1
# surinam grass = assay: Test B pre/postemergence surinam grass; type: in vivo, Brachiaria decumbens
# In short: as §1
# bedstraw = assay: Test B pre/postemergence bedstraw; type: in vivo, Galium aparine
# In short: as §1
# duck salad = assay: Test B flood test duck salad; type: in vivo, Heteranthera limosa
# In short: as §2
# wild oat = assay: Test B pre/postemergence wild oat; type: in vivo, Avena fatua
# In short: as §1
# velvetleaf = assay: Test B pre/postemergence velvetleaf; type: in vivo, Abutilon theophrasti
# In short: as §1
# sugar beet = assay: Test B pre/postemergence sugar beet; type: in vivo, Beta vulgaris
# In short: as §1
# bamyardgrass = assay: Test B flood test barnyardgrass; type: in vivo, Echinochloa crus-galli
# In short: as §2
# rice = assay: Test B flood test rice; type: in vivo, Oryza sativa
# In short: as §2
# cocklebur = assay: Test B pre/postemergence cocklebur; type: in vivo, Xanthium strumarium
# In short: as §1
# pigweed = assay: Test B pre/postemergence pigweed; type: in vivo, Amaranthus retroflexus
# In short: as §1
# crabgrass = assay: Test B pre/postemergence crabgrass; type: in vivo, Digitaria sanguinalis
# In short: as §1
# [1] = Postemergence, Rate 62 g/ha, scale 0 to 10, 0 is no effect, 10 is complete control
# [2] = Postemergence, Rate 125 g/ha, scale of 0 to 10 where 0 is no effect and 10 is complete control
# [3] = Preemergence, Rate 125 g/ha, scale of 0 to 10 where 0 is no effect and 10 is complete control
# [4] = Preemergence, Rate 250 g/ha, scale 0 (no effect) to 10 (complete control)
# [5] = Rate 62 g/ha, Preemergence, scale 0 to 10
# [6] = Rate 250 g/ha, Postemergence, scale 0 to 10, 0 is no effect, 10 is complete control
# [7] = Rate 500 g/ha, Postemergence, scale 0 to 10, 0 is no effect, 10 is complete control
# [8] = Rate 500 g/ha, Preemergence, scale 0 to 10 (0 no effect, 10 complete control)
# [9] = Pre-emergence, Rate 62 g/ha, scale 0 to 10, 0 is no effect, 10 is complete control
# [10] = Rate 125 g/ha, Pre-emergence section (flood test species), scale 0 to 10, 0 no effect, 10 complete control
# [11] = Rate 250 g/ha, Pre-emergence (flood test species), scale 0 to 10, 0 is no effect, 10 is complete control
# [12] = Rate 500 g/ha, Pre-emergence section of Table B, 0 to 10 scale (0 no effect, 10 complete control)
smiles,measurement,setting,value
CC(C)N(C(=O)n1oc(=O)n(CCN(C)C(=O)c2ccccc2)c1=O)c1ccc(F)cc1 [Compound 741],"Plant response rating, Corn",corn; [1],0
same,Corn plant response rating,corn; [2],0
same,"Plant response rating, Corn",corn; [3],0
same,Corn plant response rating,corn; [4],0
same,Corn plant response rating,corn; [5],0
same,Corn plant response rating,corn; [6],0
same,Corn plant response rating,corn; [7],0
same,Corn plant response rating,corn; [8],0
same,S. Flatsedge plant response rating,smallflower flatsedge; [9],0
same,S. Flatsedge plant response rating,smallflower flatsedge; [10],0
same,S. Flatsedge plant response rating,smallflower flatsedge; [11],0
same,S. Flatsedge plant response rating,smallflower flatsedge; [12],8
same,"Plant response rating, Rape",rape; [1],0
same,Rape plant response rating,rape; [2],0
same,"Plant response rating, Rape",rape; [3],0
same,Rape plant response rating,rape; [4],0
same,Rape plant response rating,rape; [5],0
same,Rape plant response rating,rape; [6],0
same,Rape plant response rating,rape; [7],0
same,Rape plant response rating,rape; [8],0
same,"Plant response rating, Soybean",soybean; [1],2
same,Soybean plant response rating,soybean; [2],2
same,"Plant response rating, Soybean",soybean; [3],0
same,Soybean plant response rating,soybean; [4],0
same,Soybean plant response rating,soybean; [5],0
same,Soybean plant response rating,soybean; [6],3
same,Soybean plant response rating,soybean; [7],3
same,Soybean plant response rating,soybean; [8],0
same,Morningglory plant response rating,morningglory; [2],1
same,"Plant response rating, Morningglory",morningglory; [3],0
same,Morningglory plant response rating,morningglory; [4],0
same,Morningglory plant response rating,morningglory; [5],0
same,Morningglory plant response rating,morningglory; [6],5
same,Morningglory plant response rating,morningglory; [7],3
same,Morningglory plant response rating,morningglory; [8],0
same,"Plant response rating, B. signalgrass",surinam grass; [1],0
same,B. signalgrass plant response rating,surinam grass; [2],0
same,B. signalgrass plant response rating,"surinam grass; Preemergence, Rate 62 g/ha, scale of 0 to 10 where 0 is no effect and 10 is complete control",0
same,"Plant response rating, B. signalgrass",surinam grass; [3],0
same,B. signalgrass plant response rating,surinam grass; [4],2
same,B. signalgrass plant response rating,surinam grass; [6],4
same,B. signalgrass plant response rating,surinam grass; [8],2
same,"Plant response rating, Bedstraw",bedstraw; [1],0
same,Bedstraw plant response rating,bedstraw; [2],0
same,"Plant response rating, Bedstraw",bedstraw; [3],0
same,Bedstraw plant response rating,bedstraw; [4],0
same,Bedstraw plant response rating,bedstraw; [5],0
same,Bedstraw plant response rating,bedstraw; [6],4
same,Bedstraw plant response rating,bedstraw; [7],9
same,Bedstraw plant response rating,bedstraw; [8],5
same,Ducksalad plant response rating,duck salad; [9],0
same,Ducksalad plant response rating,duck salad; [10],0
same,Ducksalad plant response rating,duck salad; [11],0
same,Ducksalad plant response rating,duck salad; [12],0
same,"Plant response rating, Wild oats",wild oat; [1],0
same,Wild oats plant response rating,wild oat; [2],0
same,"Plant response rating, Wild oats",wild oat; [3],0
same,Wild oats plant response rating,wild oat; [4],0
same,Wild oats plant response rating,wild oat; [5],0
same,Wild oats plant response rating,wild oat; [6],3
same,Wild oats plant response rating,wild oat; [8],7
same,"Plant response rating, Velvetleaf",velvetleaf; [1],0
same,Velvetleaf plant response rating,velvetleaf; [2],0
same,"Plant response rating, Velvetleaf",velvetleaf; [3],3
same,Velvetleaf plant response rating,velvetleaf; [4],3
same,Velvetleaf plant response rating,velvetleaf; [5],0
same,Velvetleaf plant response rating,velvetleaf; [6],0
same,Velvetleaf plant response rating,velvetleaf; [7],1
same,Velvetleaf plant response rating,velvetleaf; [8],3
same,"Plant response rating, Sugarbeets",sugar beet; [1],0
same,Sugarbeets plant response rating,sugar beet; [2],0
same,"Plant response rating, Sugarbeets",sugar beet; [3],0
same,Sugarbeets plant response rating,sugar beet; [4],0
same,Sugarbeets plant response rating,sugar beet; [5],0
same,Sugarbeets plant response rating,sugar beet; [6],4
same,Sugarbeets plant response rating,sugar beet; [7],4
same,Sugarbeets plant response rating,sugar beet; [8],4
same,Barnyardgrass plant response rating,bamyardgrass; [9],0
same,Barnyardgrass plant response rating,bamyardgrass; [10],0
same,Barnyardgrass plant response rating,bamyardgrass; [11],0
same,Barnyardgrass plant response rating,bamyardgrass; [12],0
same,Rice plant response rating,rice; [9],0
same,Rice plant response rating,rice; [10],0
same,Rice plant response rating,rice; [11],0
same,Rice plant response rating,rice; [12],0
same,"Plant response rating, Cocklebur",cocklebur; [1],0
same,Cocklebur plant response rating,cocklebur; [2],0
same,"Plant response rating, Cocklebur",cocklebur; [3],0
same,Cocklebur plant response rating,cocklebur; [4],0
same,Cocklebur plant response rating,cocklebur; [5],0
same,Cocklebur plant response rating,cocklebur; [6],0
same,Cocklebur plant response rating,cocklebur; [7],0
same,"Plant response rating, Redroot pigweed",pigweed; [1],3
same,Redroot pigweed plant response rating,pigweed; [2],7
same,"Plant response rating, Redroot pigweed",pigweed; [3],0
same,Redroot pigweed plant response rating,pigweed; [4],0
same,Redroot pigweed plant response rating,pigweed; [5],0
same,Redroot pigweed plant response rating,pigweed; [6],7
same,Redroot pigweed plant response rating,pigweed; [7],7
same,Redroot pigweed plant response rating,pigweed; [8],7
same,"Plant response rating, Crabgrass",crabgrass; [1],9
same,"Plant response rating, Crabgrass",crabgrass; [3],5
same,Crabgrass plant response rating,crabgrass; [4],5
same,Crabgrass plant response rating,crabgrass; [5],5
same,Crabgrass plant response rating,crabgrass; [6],9
same,Crabgrass plant response rating,crabgrass; [8],10
